Among the data in ChEMBL document CHEMBL4219110, “Structure optimization and preliminary bioactivity evaluation of N-hydroxybenzamide-based HDAC inhibitors with Y-shaped cap” (Bioorg Med Chem, 2018) are IC50 values, retold here.

pIC50: −log10 of the molar value.

As usually defined, the IC50 is the concentration at which inhibition is half-maximal. A higher IC50 goes with a need for much substance. For orientation: pIC50 means the negative decadic logarithm of the IC50, by convention in mol/L.

One experiment has as its target Histone deacetylase. Put plainly: Inhibition of HDAC in human HeLa cell nuclear extract using Boc-Lys (acetyl)-AMC as substrate preincubated for 5 mins followed by substrate addition measured after 30 mins by fluorescence assay. It is filed as protein assay.
Another experiment concerns MOLT-4. Kind of experiment: Antiproliferative activity against human MOLT4 cells after 48 hrs by MTT assay. It is filed as functional, cell-based. Conditions: MOLT-4, 48 h. For orientation: Tetrazolium assays rely on reduction of a dye to a coloured formazan, in cell work by metabolically active cells.
A further experiment concerns Jurkat. Kind of experiment: Antiproliferative activity against human Jurkat cells after 48 hrs by MTT assay. The experiment is classed as functional, cell-based.
Another experiment has as its system U-937. Kind of experiment: Antiproliferative activity against human U937 cells after 48 hrs by MTT assay. As to conditions: U-937, 48 h. The experiment is classed as functional, cell-based.
Experiment [1] can be described thus: Antiproliferative activity against human SK-N-BE(2) cells after 48 hrs by MTT assay. It is filed as functional, cell-based. As to conditions: SKNBE2, 48 h.
A further experiment deals with Histone deacetylase 1 (Homo sapiens, UniProt Q13547). Kind of experiment: Inhibition of HDAC1 (unknown origin) using Ac-Leu-GlyLys(Ac)-AMC as substrate preincubated for 5 mins followed by substrate addition measured after 30 mins by fluorescence assay.
Sequence of Histone deacetylase 1 (Q13547 whole entry): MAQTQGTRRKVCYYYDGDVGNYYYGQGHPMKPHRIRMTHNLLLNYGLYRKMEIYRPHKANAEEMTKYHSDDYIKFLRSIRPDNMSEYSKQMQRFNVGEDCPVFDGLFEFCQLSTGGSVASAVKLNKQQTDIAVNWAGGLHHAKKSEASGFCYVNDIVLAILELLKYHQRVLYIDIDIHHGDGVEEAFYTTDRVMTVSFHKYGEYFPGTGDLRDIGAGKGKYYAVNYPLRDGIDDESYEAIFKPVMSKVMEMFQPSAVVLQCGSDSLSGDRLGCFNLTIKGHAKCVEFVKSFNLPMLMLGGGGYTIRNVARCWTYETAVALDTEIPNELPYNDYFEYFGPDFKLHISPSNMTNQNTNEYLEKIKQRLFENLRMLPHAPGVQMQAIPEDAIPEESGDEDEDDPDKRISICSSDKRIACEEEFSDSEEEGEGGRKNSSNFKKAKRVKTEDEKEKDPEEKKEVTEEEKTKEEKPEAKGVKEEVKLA
Experiment [2] concerns the target T1, Protein deacetylase HDAC6 (Homo sapiens, UniProt Q9UBN7).
T1 sequence (Q9UBN7 whole entry): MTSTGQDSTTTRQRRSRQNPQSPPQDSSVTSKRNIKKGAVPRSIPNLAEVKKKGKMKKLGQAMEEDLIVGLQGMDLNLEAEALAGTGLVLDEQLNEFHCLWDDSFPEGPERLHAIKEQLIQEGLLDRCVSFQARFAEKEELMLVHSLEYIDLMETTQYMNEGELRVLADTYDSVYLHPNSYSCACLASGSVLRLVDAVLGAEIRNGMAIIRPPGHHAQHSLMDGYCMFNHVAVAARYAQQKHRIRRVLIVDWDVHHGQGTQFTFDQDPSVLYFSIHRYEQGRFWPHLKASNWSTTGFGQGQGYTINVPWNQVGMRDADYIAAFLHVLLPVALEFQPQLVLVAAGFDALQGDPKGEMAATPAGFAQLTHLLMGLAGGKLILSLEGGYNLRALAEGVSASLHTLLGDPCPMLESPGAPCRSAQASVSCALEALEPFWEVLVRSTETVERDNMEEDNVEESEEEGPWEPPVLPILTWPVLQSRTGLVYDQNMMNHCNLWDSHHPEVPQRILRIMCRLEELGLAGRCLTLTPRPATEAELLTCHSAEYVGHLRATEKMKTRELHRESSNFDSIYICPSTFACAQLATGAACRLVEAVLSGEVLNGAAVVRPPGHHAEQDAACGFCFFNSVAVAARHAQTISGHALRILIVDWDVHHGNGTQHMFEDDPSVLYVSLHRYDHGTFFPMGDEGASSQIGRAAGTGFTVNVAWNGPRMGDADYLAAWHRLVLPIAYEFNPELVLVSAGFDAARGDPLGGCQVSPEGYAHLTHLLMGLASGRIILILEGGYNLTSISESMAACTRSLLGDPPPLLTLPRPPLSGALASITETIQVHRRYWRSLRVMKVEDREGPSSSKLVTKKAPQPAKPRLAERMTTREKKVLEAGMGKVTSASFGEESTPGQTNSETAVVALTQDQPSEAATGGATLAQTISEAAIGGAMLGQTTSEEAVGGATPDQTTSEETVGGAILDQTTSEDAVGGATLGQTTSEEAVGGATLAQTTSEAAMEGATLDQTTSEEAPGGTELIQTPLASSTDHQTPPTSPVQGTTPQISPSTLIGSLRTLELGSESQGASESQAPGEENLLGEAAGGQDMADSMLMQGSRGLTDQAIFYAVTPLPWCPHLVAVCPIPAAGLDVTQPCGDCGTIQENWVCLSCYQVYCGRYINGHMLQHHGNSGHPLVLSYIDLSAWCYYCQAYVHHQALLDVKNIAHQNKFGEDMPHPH
Kind of experiment: Inhibition of HDAC6 (unknown origin) using Ac-Leu-GlyLys(Ac)-AMC as substrate preincubated for 5 mins followed by substrate addition measured after 30 mins by fluorescence assay.

The target in another experiment is T2, Histone deacetylase 8 (Homo sapiens, UniProt Q9BY41).
T2 sequence (Q9BY41 whole entry): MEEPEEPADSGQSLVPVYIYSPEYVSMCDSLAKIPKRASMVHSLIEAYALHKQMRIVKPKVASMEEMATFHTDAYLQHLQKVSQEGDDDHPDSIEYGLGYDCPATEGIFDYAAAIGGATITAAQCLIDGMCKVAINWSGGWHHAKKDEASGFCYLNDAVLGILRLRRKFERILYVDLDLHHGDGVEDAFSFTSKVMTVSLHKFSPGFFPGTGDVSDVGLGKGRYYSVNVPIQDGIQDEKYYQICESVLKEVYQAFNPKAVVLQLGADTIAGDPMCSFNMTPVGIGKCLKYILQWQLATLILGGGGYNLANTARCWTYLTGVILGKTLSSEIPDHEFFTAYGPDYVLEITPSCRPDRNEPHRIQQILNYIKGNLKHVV
Kind of experiment: Inhibition of HDAC8 (unknown origin) using Ac-Leu-GlyLys(Ac)-AMC as substrate preincubated for 5 mins followed by substrate addition measured after 30 mins by fluorescence assay.

Another experiment has as its target T3, Histone deacetylase 11 (Homo sapiens, UniProt Q96DB2).
T3 sequence (Q96DB2 whole entry): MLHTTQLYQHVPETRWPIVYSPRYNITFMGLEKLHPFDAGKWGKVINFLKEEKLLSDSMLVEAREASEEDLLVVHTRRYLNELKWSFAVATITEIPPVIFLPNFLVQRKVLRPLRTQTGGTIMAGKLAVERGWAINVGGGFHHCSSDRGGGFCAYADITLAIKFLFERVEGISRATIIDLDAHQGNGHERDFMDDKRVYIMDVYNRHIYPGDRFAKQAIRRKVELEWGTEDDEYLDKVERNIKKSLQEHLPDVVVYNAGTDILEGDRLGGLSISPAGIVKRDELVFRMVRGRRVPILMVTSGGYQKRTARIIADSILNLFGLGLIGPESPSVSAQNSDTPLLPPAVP
Put plainly: Inhibition of HDAC11 (unknown origin) using Ac-Leu-GlyLys(Ac)-AMC as substrate preincubated for 5 mins followed by substrate addition measured after 30 mins by fluorescence assay.

A further experiment has as its system HEL. Kind of experiment: cells. Conditions: Homo sapiens, 48 h.
Another experiment relates to HeLa. Put plainly: cells. As to conditions: Homo sapiens, 48 h.

For the molecule `O=C(/C=C/c1ccc(C(=O)NO)cc1)N[C@@H](Cc1c[nH]c2ccccc12)C(=O)Nc1ccccc1Cl`, at Histone deacetylase, the IC50 turned out to be 57.1 nM.
Same read-out and setting: under `O=C(/C=C/c1ccc(C(=O)NO)cc1)N[C@@H](Cc1c[nH]c2ccccc12)C(=O)Nc1ccc(I)cc1` stands 29.5 nM.
The molecule `O=C(/C=C/c1ccc(C(=O)NO)cc1)N[C@@H](Cc1c[nH]c2ccccc12)C(=O)Nc1cccc(Cl)c1` registered an IC50 against Histone deacetylase of 8.1 nM. The pIC50 in the experiment with MOLT-4 was 6.17; in the experiment with Jurkat, 6.40; with U-937, 6.18; in experiment [1] it was 6.22; against Histone deacetylase 1 it was 7.64; in [2] it was 7.29. The pIC50 was 6.88 against Histone deacetylase 8, 7.12 against Histone deacetylase 11, 6.31 in the experiment with HEL and 5.78 in the experiment on HeLa.
In the case of `CCCCNC(=O)[C@H](Cc1c[nH]c2ccccc12)NC(=O)/C=C/c1ccc(C(=O)NO)cc1`, at Histone deacetylase, the IC50 was found to be 84.8 nM.
Still for that read-out and setting: under `Cc1ccc(NC(=O)[C@H](Cc2c[nH]c3ccccc23)NC(=O)/C=C/c2ccc(C(=O)NO)cc2)cc1` stands 22.5 nM.
Still for that read-out and setting: the figure for `CC(C)CNC(=O)[C@H](Cc1c[nH]c2ccccc12)NC(=O)/C=C/c1ccc(C(=O)NO)cc1` is 311.9 nM; for `O=C(/C=C/c1ccc(C(=O)NO)cc1)N[C@@H](Cc1c[nH]c2ccccc12)C(=O)Nc1cccc2ccccc12` it is 59.5 nM.
Still for that read-out and setting: the figure for `O=C(/C=C/c1ccc(C(=O)NO)cc1)N[C@@H](Cc1c[nH]c2ccccc12)C(=O)NC1CC1` is 268.9 nM.
At Histone deacetylase, `O=C(/C=C/c1ccc(C(=O)NO)cc1)N[C@@H](Cc1c[nH]c2ccccc12)C(=O)NCc1ccccc1` returned an IC50 of 37.3 nM. Against the preceding molecule, the IC50 is about 7.2-fold lower.
The same measure, in the same setting: the figure for `O=C(/C=C/c1ccc(C(=O)NO)cc1)N[C@@H](Cc1c[nH]c2ccccc12)C(=O)NCCc1ccccc1` is 21.8 nM; for `O=C(/C=C/c1ccc(C(=O)NO)cc1)N[C@@H](Cc1c[nH]c2ccccc12)C(=O)Nc1ccncc1` it is 36.9 nM.
Consider `CC(C)(C)NC(=O)[C@H](Cc1c[nH]c2ccccc12)NC(=O)/C=C/c1ccc(C(=O)NO)cc1`, for which the IC50 at Histone deacetylase turned out to be 165.5 nM.
On the same count and under the same terms, under `COc1ccc(NC(=O)[C@H](Cc2c[nH]c3ccccc23)NC(=O)/C=C/c2ccc(C(=O)NO)cc2)cc1` stands 35.8 nM; under `O=C(/C=C/c1ccc(C(=O)NO)cc1)N[C@@H](Cc1c[nH]c2ccccc12)C(=O)NC1CCCC1`, 249.1 nM.
Still for that read-out and setting: the figure for `O=C(/C=C/c1ccc(C(=O)NO)cc1)N[C@@H](Cc1c[nH]c2ccccc12)C(=O)Nc1ccccc1` is 7.6 nM.
Take `O=C(/C=C/c1ccc(C(=O)NO)cc1)N[C@@H](Cc1c[nH]c2ccccc12)C(=O)Nc1ccc(F)cc1`: the IC50 against Histone deacetylase is 2 nM. The pIC50 is 6.08 in the experiment on MOLT-4; 6.01 in the experiment on Jurkat; 6.20 in the experiment with U-937; 5.88 in experiment [1]; 6.00 in the experiment with HEL; 5.80 in the experiment with HeLa.
With `Cc1cc(C)c(NC(=O)[C@H](Cc2c[nH]c3ccccc23)NC(=O)/C=C/c2ccc(C(=O)NO)cc2)c(C)c1`, the IC50 at Histone deacetylase amounted to 22.2 nM.
As for `O=C(/C=C/c1ccc(C(=O)NO)cc1)N[C@@H](Cc1c[nH]c2ccccc12)C(=O)Nc1ccc(Br)cc1`, on Histone deacetylase, the IC50 came out at 2 nM. Also, the pIC50 was 6.33 in the experiment on MOLT-4; 6.11 with Jurkat; 6.29 with U-937; 6.21 in experiment [1]; 7.34 against Histone deacetylase 1; 6.90 in experiment [2]. Also, the pIC50 is 6.45 against Histone deacetylase 8, 6.75 against Histone deacetylase 11, 6.36 with HEL and 5.92 with HeLa.
With `CCNC(=O)[C@H](Cc1c[nH]c2ccccc12)NC(=O)/C=C/c1ccc(C(=O)NO)cc1`, the IC50 at Histone deacetylase is 112.1 nM.
In the case of `O=C(/C=C/c1ccc(C(=O)NO)cc1)N[C@@H](Cc1c[nH]c2ccccc12)C(=O)Nc1ccc(Cl)cc1`, on Histone deacetylase, the IC50 is recorded as 5.7 nM. The pIC50 was 6.17 with MOLT-4; 5.57 in the experiment on Jurkat; 6.03 in the experiment on U-937; 5.80 in experiment [1]; 7.26 on Histone deacetylase 1; 7.90 in experiment [2]. Further, the pIC50 was 7.33 against Histone deacetylase 8, 7.80 against Histone deacetylase 11, 5.94 with HEL and 5.84 in the experiment on HeLa.
As to `O=C(CCCCCCC(=O)Nc1ccccc1)NO` [VORINOSTAT], the pIC50 in the experiment on HEL was 6.10; in the experiment with HeLa it was 5.74.
